Numbers after ± are expanded uncertainties.
Details: Liquid, Ebulliometric method (Recirculating still)

| vapor or sublimation pressure (323.46 K) [kPa] | vapor or sublimation pressure (338.72 K) [kPa] | vapor or sublimation pressure (348.56 K) [kPa] | vapor or sublimation pressure (351.51 K) [kPa] | vapor or sublimation pressure (359.76 K) [kPa] | vapor or sublimation pressure (360.06 K) [kPa] | vapor or sublimation pressure (380.43 K) [kPa] | vapor or sublimation pressure (380.94 K) [kPa] | vapor or sublimation pressure (394.09 K) [kPa] | vapor or sublimation pressure (394.6 K) [kPa] | vapor or sublimation pressure (398.49 K) [kPa] | vapor or sublimation pressure (398.74 K) [kPa] | SMILES |
| --- | --- | --- | --- | --- | --- | --- | --- | --- | --- | --- | --- | --- |
| 30 ± 1.3 | 60 ± 1.5 | 90 ± 1.8 | 101.3 ± 2 | – | – | – | – | – | – | – | – | CCO [ethanol] |
| – | – | – | – | 30 ± 1.3 | 30 ± 2.5 | 60 ± 1.5 | 60 ± 4.7 | 90 ± 1.9 | 90 ± 7 | 101.3 ± 2 | 101.3 ± 7.9 | CCCCCCCC [octane] |
